Test [1] addresses T1, butyrylcholinesterase from equine serum (BuChE) (Equus caballus, UniProt P81908).
T1 construct: gene BCHE
The experiment in a line: biochemical.

For test [2], the target named is T2, D-Amino acid oxidase from porcine kidney (DAAO) (Sus scrofa, UniProt P00371).
T2 construct: gene DAO; native enzyme from porcine kidney, Sigma-Aldrich
The experiment in a line: colorimetric, […],4-dinitrophenylhydrazine detection of keto acid. Format: biochemical. The following applies: D-Ala substrate, 0.2 M Tris-HCl pH 8.2, 37 °C, 30 min.

Test [3] concerns the target acetylcholinesterase from Electrophorus electricus (AChE) (Electrophorus electricus, UniProt O42275). The experiment in a line: biochemical.
The target in test [4] is T2, D-Amino acid oxidase from porcine kidney (DAAO). The experiment in a line: colorimetric, […],4-dinitrophenylhydrazine detection of keto acid. Format: biochemical. The following applies: read-out: DAAO Inhibition [IC50] ^c/[%] ^d.

Here are results for 15 molecules from publication PMC6271642, “New Derivatives of 3,4-Dihydroisoquinoline-3-carboxylic Acid with Free-Radical Scavenging, D-Amino Acid Oxidase, Acetylcholinesterase and Butyrylcholinesterase Inhibitory Activity” (Molecules, 2014).

T2 sequence (P00371 whole entry): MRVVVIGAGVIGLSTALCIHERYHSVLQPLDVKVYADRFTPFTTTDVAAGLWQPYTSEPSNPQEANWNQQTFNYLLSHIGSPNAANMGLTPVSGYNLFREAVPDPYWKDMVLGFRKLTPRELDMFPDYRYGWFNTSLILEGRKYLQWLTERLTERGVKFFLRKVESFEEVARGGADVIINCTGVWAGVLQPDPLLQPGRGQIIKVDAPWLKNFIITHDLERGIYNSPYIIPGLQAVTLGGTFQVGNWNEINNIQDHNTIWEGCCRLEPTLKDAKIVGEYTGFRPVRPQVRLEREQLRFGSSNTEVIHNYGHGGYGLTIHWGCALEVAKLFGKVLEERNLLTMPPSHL
T1 sequence (P81908 whole entry): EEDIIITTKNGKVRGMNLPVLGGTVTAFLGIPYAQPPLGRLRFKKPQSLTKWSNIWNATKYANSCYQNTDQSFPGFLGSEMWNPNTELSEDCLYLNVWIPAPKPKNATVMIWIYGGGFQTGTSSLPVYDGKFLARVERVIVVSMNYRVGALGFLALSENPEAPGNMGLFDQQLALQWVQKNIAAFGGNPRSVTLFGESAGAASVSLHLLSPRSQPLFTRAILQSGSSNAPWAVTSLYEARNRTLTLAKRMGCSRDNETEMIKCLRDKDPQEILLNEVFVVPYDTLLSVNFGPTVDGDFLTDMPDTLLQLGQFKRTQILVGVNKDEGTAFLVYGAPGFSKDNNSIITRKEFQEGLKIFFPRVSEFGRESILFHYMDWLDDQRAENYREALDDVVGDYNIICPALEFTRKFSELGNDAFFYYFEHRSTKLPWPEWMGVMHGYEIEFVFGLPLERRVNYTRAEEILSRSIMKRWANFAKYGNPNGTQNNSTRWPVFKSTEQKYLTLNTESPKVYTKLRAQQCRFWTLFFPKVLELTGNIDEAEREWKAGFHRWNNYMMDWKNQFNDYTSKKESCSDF
Sequence of acetylcholinesterase from Electrophorus electricus (AChE) (O42275 24-633): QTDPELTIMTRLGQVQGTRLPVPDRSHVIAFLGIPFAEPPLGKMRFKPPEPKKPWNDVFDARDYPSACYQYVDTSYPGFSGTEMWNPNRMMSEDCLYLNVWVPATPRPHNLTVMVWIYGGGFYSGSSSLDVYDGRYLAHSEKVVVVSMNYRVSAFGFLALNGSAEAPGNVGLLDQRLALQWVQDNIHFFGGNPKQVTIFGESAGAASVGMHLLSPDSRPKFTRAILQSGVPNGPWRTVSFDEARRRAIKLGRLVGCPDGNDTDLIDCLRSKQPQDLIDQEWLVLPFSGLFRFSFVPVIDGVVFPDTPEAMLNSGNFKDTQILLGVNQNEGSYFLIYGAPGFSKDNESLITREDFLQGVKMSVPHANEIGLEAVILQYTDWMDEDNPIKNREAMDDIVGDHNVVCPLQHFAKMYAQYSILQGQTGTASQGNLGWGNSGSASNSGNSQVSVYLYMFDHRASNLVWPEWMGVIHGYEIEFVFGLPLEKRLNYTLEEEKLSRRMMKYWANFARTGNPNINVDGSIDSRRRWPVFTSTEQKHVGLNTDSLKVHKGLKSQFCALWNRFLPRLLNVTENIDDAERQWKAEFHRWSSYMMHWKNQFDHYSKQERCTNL

Take `O=C(O)C1Cc2c(Cl)c(O)cc(O)c2C=N1` (racemic) [5k, 5-Chloro-6,8-dihydroxy-3,4-dihydroisoquinolin-3-carboxylic acid]: the results for the IC50 in test [1] and in test [3] were 1420 µM and 590 µM, respectively. The “DAAO Inhibition [IC50] ^c/[%] ^d” value in test [2] (3570 µM, 3.57 mM compound) is reported as 7.27%.
As for `O=C(O)C1CCc2cc(O)c(O)cc2C=N1` (racemic) [compound 9, 7,8-Dihydroxy-4,5-dihydro-3H-2-benzazepine-3-carboxylic Acid], the IC50 came to 550 µM in test [4] and 2080 µM in test [3].
Turning to `O=C(O)C1Cc2c(Br)ccc(O)c2C=N1` (racemic) [5a, 5-Bromo-8-hydroxy-3,4-dihydroisoquinolin-3-carboxylic acid], in test [2] (unreliable (above the highest final concentration of about 3.57 mM, extrapolated)), the “DAAO Inhibition [IC50] ^c/[%] ^d” value is recorded as 8.46 mM.
Regarding `O=C(O)C1Cc2ccc(Br)c(O)c2C=N1` (racemic) [5b, 7-Bromo-8-hydroxy-3,4-dihydroisoquinolin-3-carboxylic acid], the “DAAO Inhibition [IC50] ^c/[%] ^d” value in test [2] (3570 µM, 3.57 mM compound) is on record as 13.88%.
Turning to `O=C(O)C1Cc2cc(O)c(O)c(Cl)c2C=N1` (racemic) [5h, 8-Chloro-6,7-dihydroxy-3,4-dihydroisoquinolin-3-carboxylic acid], the IC50 in test [4] turned out to be 1740 µM; in test [3], 820 µM.
For the molecule `O=C(O)C1Cc2cc(O)c(O)cc2C=N1` (racemic) [5e, 6,7-Dihydroxy-3,4-dihydroisoquinolin-3-carboxylic acid], the IC50 in test [1] came to 370 µM; in test [3], 560 µM. The “DAAO Inhibition [IC50] ^c/[%] ^d” value in test [2] (3570 µM, 3.57 mM compound) turned out to be 7.52%.
As to `O=C(O)C1Cc2c(cc(O)c(O)c2Cl)C=N1` (racemic) [5l, 5-Chloro-6,7-dihydroxy-3,4-dihydroisoquinolin-3-carboxylic acid], the IC50 in test [1] turned out to be 170 µM; in test [4], 1290 µM.
Consider `O=C(O)C1Cc2cc(O)c(Br)c(O)c2C=N1` (racemic) [5j, 7-Bromo-6,8-dihydroxy-3,4-dihydroisoquinolin-3-carboxylic acid], for which the values for the IC50 in test [1] and in test [3] were 640 µM and 470 µM, respectively. For the same molecule, the “DAAO Inhibition [IC50] ^c/[%] ^d” value in test [2] (3570 µM, 3.57 mM compound) is on record as 11.50%.
As to `O=C(O)C1Cc2cc(O)c(O)c(Br)c2C=N1` (racemic) [5g, 8-Bromo-6,7-dihydroxy-3,4-dihydroisoquinolin-3-carboxylic acid], in test [4], the IC50 came out at 2000 µM.
Same read-out and setting: as for `O=C(O)C1Cc2cc(O)cc(O)c2C=N1` (racemic) [5c, 6,8-Dihydroxy-3,4-dihydroisoquinolin-3-carboxylic acid], the figure is 1660 µM.
Take `C[C@@]1(C(=O)O)Cc2cc(O)c(O)cc2C=N1` [compound 13, (S)-6,7-Dihydroxy-3-methyl-3,4-dihydroisoquinolin-3-carboxylic Acid]: the IC50 is 620 µM in test [1] and 1780 µM in test [3]. The “DAAO Inhibition [IC50] ^c/[%] ^d” value in test [2] (3570 µM, 3.57 mM compound) came to 7.89%.
Take `CC1(C(=O)O)Cc2cc(O)c(O)cc2C2C(Cl)C(=O)N21` (stereo not shown) [compound 15, 1-Chloro-7,8-dihydroxy-4-methyl-2-oxo-1,4,5,9b-tetrahydro-2H-azeto[2,1-a]-isoquinoline-4-carboxylic Acid]: the IC50 in test [1] was found to be 1750 µM; in test [4], 2020 µM.
On to `O=C(O)C1Cc2c(O)c(O)cc(Br)c2C=N1` (racemic) [5f, 8-Bromo-5,6-dihydroxy-3,4-dihydroisoquinolin-3-carboxylic acid], for which the IC50 in test [4] was 2060 µM; in test [3] it was 540 µM.
For the molecule `O=C(O)C1Cc2cc(O)c(O)c(I)c2C=N1` (racemic) [5d, 6,7-Dihydroxy-8-iodo-3,4-dihydroisoquinolin-3-carboxylic acid], the IC50 in test [4] came to 3350 µM.
On the same count and under the same terms, next, `O=C(O)c1ccccc1` [Benzoic acid, reference compound]: 2280 µM.
